From article PMC8535176, “Efficacy of epetraborole against Mycobacterium abscessus is increased with norvaline” (PLoS Pathogens, 2021)
≈ marks a conversion by molar mass, not a printed value. Like-named read-outs stand apart in the source and are kept apart here.

Columns and labels:
Assay in all cases: microbe, parasite or virus in culture
[1] = system: B. cereus; parameters: Whole-cell growth inhibition, dose-response MIC (MIC90) by resazurin microtiter assay (REMA), fluorescence read-out; conditions: Bacillus cereus
[2] = system: C. glutamicum; parameters: Whole-cell growth inhibition, dose-response MIC (MIC90) by resazurin microtiter assay (REMA), fluorescence read-out; conditions: Corynebacterium glutamicum
[3] = system: E. coli; parameters: Whole-cell growth inhibition, dose-response MIC (MIC90) by resazurin microtiter assay (REMA), fluorescence read-out; conditions: Escherichia coli
[4] = system: M. abscessus; parameters: Whole-cell growth inhibition, dose-response MIC (MIC90) by resazurin microtiter assay (REMA), fluorescence read-out; conditions: Mycobacteroides abscessus
[5] = system: M. avium hominissuis; parameters: Whole-cell growth inhibition, dose-response MIC (MIC90) by resazurin microtiter assay (REMA), fluorescence read-out; conditions: Mycobacterium avium
[6] = system: M. avium intracellulaire; parameters: Whole-cell growth inhibition, dose-response MIC (MIC90) by resazurin microtiter assay (REMA), fluorescence read-out; conditions: Mycobacterium avium
[7] = system: T1, M. tuberculosis Erdman; parameters: Whole-cell growth inhibition, dose-response MIC (MIC90) by resazurin microtiter assay (REMA), fluorescence read-out; conditions: Mycobacterium tuberculosis, ERDMAN
T1 construct: Erdman

[8] = system: T2, M. tuberculosis H37Rv; parameters: Whole-cell growth inhibition, dose-response MIC (MIC90) by resazurin microtiter assay (REMA), fluorescence read-out; conditions: Mycobacterium tuberculosis, H37RV
T2 construct: H37Rv

[9] = system: P. aeruginosa; parameters: Whole-cell growth inhibition, dose-response MIC (MIC90) by resazurin microtiter assay (REMA), fluorescence read-out; conditions: Pseudomonas aeruginosa
[10] = system: T3, Mycobacteroides abscessus subsp. abscessus ATCC 19977; parameters: species or system M. abscessus; Resazurin microtiter assay (REMA), fluorescence; MIC at 90% growth inhibition from Gompertz fit; conditions: ATCC19977, 48 h, rough morphotype
T3 construct: ATCC 19977
Experimental: (§1) MIC values were determined using the resazurin microtiter assay (REMA). Cultures were grown to log phase (OD600 of 0.4–0.8) and diluted to OD600 of 0.005. Drugs were prepared in two-fold serial dilutions in 96-well plates with 90 μL of bacteria per well to a final volume of 100 μL. Plates were incubated at 37°C until drug-free wells were turbid (2 days for M. abscessus). Ten μL of resazurin (0.025% wt/vol) was added to each well. Once the drug-free wells turned pink (one doubling time), the fluorescence (ex/em 560nm/590nm) was measured using an Infinite F200 Tecan plate reader. Fluorescence intensities were converted to % viable cells relative to drug-free conditions and fit to the Gompertz equation using GraphPad Prism version 9. MIC values at 90% growth inhibition were determined from the nonlinear regression Gompertz equation. Next, we tested the in vitro activity of EPT against a panel of M. abscessus clinical isolates belonging to the three subspecies of the M. abscessus complex (M. abscessus, M. massiliense, and M. bolletii) with smooth and rough colony morphologies and with different drug susceptibility profiles to various antibiotics. There was no loss in activity against clinical isolates (range of 0.014–0.046 μg/mL) nor different morphologies (S2 Table). To determine the spectrum of activity of EPT, we curated a panel of various mycobacteria and representative gram-positive and gram-negative bacteria. […] Mycobacteria strains were grown in rolling [compound left out] culture at 37°C in Middlebrook 7H9 (Difco) supplemented with 10% albumin dextrose catalase (ADC), 0.2% glycerol, and 0.05% Tween 80 (7H9 complete) or on 7H10 agar plates supplemented with 10% oleic acid ADC and 0.5% glycerol at 37°C. When mentioned, the carbon source was modified from glycerol to acetate or the detergent Tween 80 was removed from the media. Bacillus cereus (clinical isolate), Corynebacterium glutamicum (ATCC 13032), Escherichia coli, and Pseudomonas aeruginosa PAO1 were grown in LB broth. HepG2 cells (ATCC HB-8065) were grown in Dulbecco’s modified Eagle’s medium (DMEM) with phenol red (from Gibco) supplemented with 10% fetal bovine serum at 37°C with 5% CO2.

[11] = system: T4, Mycobacteroides abscessus subsp. abscessus MT16_1065; parameters: species or system M. abscessus; Resazurin microtiter assay (REMA), fluorescence; MIC at 90% growth inhibition from Gompertz fit; conditions: 48 h, smooth morphotype
T4 construct: MT16_1065
Experimental: as §1

[12] = system: T5, Mycobacteroides abscessus subsp. abscessus MT16_6490; parameters: species or system M. abscessus; Resazurin microtiter assay (REMA), fluorescence; MIC at 90% growth inhibition from Gompertz fit; conditions: 48 h, smooth morphotype
T5 construct: MT16_6490
Experimental: as §1

[13] = system: T6, Mycobacteroides abscessus subsp. bolletii AV; parameters: species or system M. abscessus; Resazurin microtiter assay (REMA), fluorescence; MIC at 90% growth inhibition from Gompertz fit; conditions: 48 h, smooth morphotype
T6 construct: AV
Experimental: as §1

[14] = system: T7, Mycobacteroides abscessus subsp. massiliense MT15_1748; parameters: species or system M. abscessus; Resazurin microtiter assay (REMA), fluorescence; MIC at 90% growth inhibition from Gompertz fit; conditions: 48 h, rough morphotype
T7 construct: MT15_1748
Experimental: as §1

[15] = system: T8, Mycobacteroides abscessus subsp. massiliense MT15_1749; parameters: species or system M. abscessus; Resazurin microtiter assay (REMA), fluorescence; MIC at 90% growth inhibition from Gompertz fit; conditions: 48 h, rough morphotype
T8 construct: MT15_1749
Experimental: as §1

[16] = system: T9, Mycobacteroides abscessus subsp. bolletii Paris 167; parameters: species or system M. abscessus; Resazurin microtiter assay (REMA), fluorescence; MIC at 90% growth inhibition from Gompertz fit; conditions: 48 h, rough morphotype, read-out: MIC BDQ
T9 construct: Paris 167
Experimental: as §1

## NCC[C@H](O)C(=O)N[C@@H]1C[C@H](N)[C@@H](O[C@H]2O[C@H](CN)[C@@H](O)[C@H](O)[C@H]2O)[C@H](O)[C@H]1O[C@H]1O[C@H](CO)[C@@H](O)[C@H](N)[C@H]1O [Amikacin]
[1]; read-out: MIC (µg/mL) / AMK
  MIC: 64 µg/mL (≈ 109 µM)
[2]; read-out: MIC (µg/mL) / AMK
  MIC: 0.064 µg/mL (≈ 0.109 µM)
[3]; read-out: MIC (µg/mL) / AMK
  MIC: 0.15 µg/mL (≈ 0.256 µM)
[4]; read-out: MIC (µg/mL) / AMK
  MIC: 4.8 µg/mL (≈ 8.2 µM)
[5]; read-out: MIC (µg/mL) / AMK
  MIC: 5.6 µg/mL (≈ 9.56 µM)
[6]; read-out: MIC (µg/mL) / AMK
  MIC: 3.8 µg/mL (≈ 6.49 µM)
[7]; read-out: MIC (µg/mL) / AMK
  MIC: 0.48 µg/mL (≈ 0.82 µM)
[8]; read-out: MIC (µg/mL) / AMK
  MIC: 0.3 µg/mL (≈ 0.512 µM)
[9]; read-out: MIC (µg/mL) / AMK
  MIC: 0.22 µg/mL (≈ 0.376 µM)
[10]; read-out: MIC AMK
  MIC: 2.4 µg/mL (≈ 4.1 µM)
[11]; read-out: MIC AMK
  MIC: 2.1 µg/mL (≈ 3.59 µM)
[12]; read-out: MIC AMK
  MIC: 5.7 µg/mL (≈ 9.73 µM)
[13]; read-out: MIC AMK
  MIC: 7 µg/mL (≈ 12 µM)
[14]; read-out: MIC AMK
  MIC: 14 µg/mL (≈ 23.9 µM)
[15]; read-out: MIC AMK
  MIC: 8.8 µg/mL (≈ 15 µM)

## COc1nc2ccc(Br)cc2cc1[C@@H](c1ccccc1)[C@@](O)(CCN(C)C)c1cccc2ccccc12 [Bedaquiline]
[1]; read-out: MIC (µg/mL) / BDQ
  MIC: > 7.8 µg/mL
[2]; read-out: MIC (µg/mL) / BDQ
  MIC: > 7.8 µg/mL
[3]; table prints MIC, main text calls the EPT values MIC90, read-out: MIC (µg/mL) / BDQ
  MIC: > 7.8 µg/mL
[4]; read-out: MIC (µg/mL) / BDQ
  MIC: 0.67 µg/mL (≈ 1.21 µM)
[5]; read-out: MIC (µg/mL) / BDQ
  MIC: 0.038 µg/mL (≈ 0.0684 µM)
[6]; read-out: MIC (µg/mL) / BDQ
  MIC: 0.014 µg/mL (≈ 0.0252 µM)
[7]; read-out: MIC (µg/mL) / BDQ
  MIC: 0.061 µg/mL (≈ 0.11 µM)
[8]; read-out: MIC (µg/mL) / BDQ
  MIC: 0.26 µg/mL (≈ 0.468 µM)
[9]; read-out: MIC (µg/mL) / BDQ
  MIC: > 7.8 µg/mL
[10]; read-out: MIC BDQ
  MIC: 0.27 µg/mL (≈ 0.486 µM)
[11]; read-out: MIC BDQ
  MIC: 0.36 µg/mL (≈ 0.648 µM)
[12]; read-out: MIC BDQ
  MIC: 0.83 µg/mL (≈ 1.49 µM)
[13]; read-out: MIC BDQ
  MIC: 1.3 µg/mL (≈ 2.34 µM)
[16]
  MIC: 0.39 µg/mL (≈ 0.702 µM)
[14]; read-out: MIC BDQ
  MIC: 0.23 µg/mL (≈ 0.414 µM)
[15]; read-out: MIC BDQ
  MIC: 0.4 µg/mL (≈ 0.72 µM)
